Measurements as given in publication PMC3881672, “In Vitro Permeation of Micronized and Nanonized Alaptide from Semisolid Formulations” (The Scientific World Journal, 2013).
Marks after values point to notes of the source that are not given here. Values belong to the molecule of their own block, whether it stands above or below them.

Experiments:
[1] = parameters: method as in PMID 3726896, PMID 1687590; settings: similar metabolic profile also found in man; cited from earlier work
[2] = parameters: method as in ref 8, 9 = [8]; 8 Radl S Kasafirek E Krejci I Alaptide Drugs of the Future 1990 15 445 447 || [9]; 9 Jampílek J Opatrilova R Rezacova A Oktabec Z Dohnal J Inventors; Faculty of Pharmacy, University of Veterinary and Pharmaceutical Sciences Brno, assignee, “Alaptide: Methods of effecting its solubil; settings: octanol-water; cited from earlier work
CYP1A2 = tested on: CYP1A2; parameters: method as in PMID 3726896, PMID 2905482; settings: hepatocytes; cited from earlier work
[3] = parameters: method as in ref 8, 9 = [8]; 8 Radl S Kasafirek E Krejci I Alaptide Drugs of the Future 1990 15 445 447 || [9]; 9 Jampílek J Opatrilova R Rezacova A Oktabec Z Dohnal J Inventors; Faculty of Pharmacy, University of Veterinary and Pharmaceutical Sciences Brno, assignee, “Alaptide: Methods of effecting its solubil; settings: cited from earlier work
CYP1B1 = tested on: CYP1B1; parameters: method as in PMID 3726896, PMID 2905482; settings: hepatocytes; cited from earlier work
CYP1A1 = tested on: CYP1A1; parameters: method as in PMID 3726896, PMID 2905482; settings: hepatocytes; cited from earlier work
[4] = parameters: method as in PMID 3726896, PMID 2905482; settings: cited from earlier work
experimental injury = tested on: experimental injury; parameters: method as in ref 8 = [8]; 8 Radl S Kasafirek E Krejci I Alaptide Drugs of the Future 1990 15 445 447; settings: pigs; cited from earlier work
[5] = tested on: experimental skin injuries; parameters: method as in ref 8 = [8]; 8 Radl S Kasafirek E Krejci I Alaptide Drugs of the Future 1990 15 445 447; settings: rats; cited from earlier work
[6] = In vitro transdermal permeation, Franz diffusion cell; settings: for Cumulative permeated amounts Q t: mean ± SD n = 5; for apparent permeability coefficient K p × 10^−3: Kp = J/Cd, Cd 1.0 × 10^4 μg/mL

permeation through the skin from ointment ([6]; both forms of alaptide, ointment): minimal
SMILES: C[C@@H]1NC(=O)C2(CCCC2)NC1=O [alaptide, (S)-8-Methyl-6,9-diazaspiro[4.5]decan-7,10-dione]
excretion [1]: excreted unchanged, mostly via urine | experimental log P o/w [2]: 1.39 | Induction of CYP1A2 (CYP1A2): did not occur | solubility [3]: poorly soluble | stability ([3]; sunlight): stable in the sunlight | Induction of CYP1B1 (CYP1B1): did not occur | Induction of CYP1A1 (CYP1A1): did not occur | toxic effects (including skin irritation) [4]: No toxic effects | skin regeneration after application on experimental injury (experimental injury): faster skin regeneration | curing of experimental skin injuries [5]: accelerated curing experimental skin injuries

log K p ([6]; from buffer): −1.77 | Cumulative permeated amounts Q t ([6]; from buffer, 0.5 h): 12.6 ± 1.9^a μg/cm^2 | Cumulative permeated amounts Q t ([6]; from buffer, 1 h): 40.1 ± 8.0^a μg/cm^2 | Cumulative permeated amounts Q t ([6]; from buffer, 2 h): 150.8 ± 7.2^a μg/cm^2 | Cumulative permeated amounts Q t ([6]; from buffer, 4 h): 418.3 ± 24.6^b μg/cm^2 | Cumulative permeated amounts Q t ([6]; from buffer, 6 h): 1189.0 ± 105.9^d μg/cm^2 | Cumulative permeated amounts Q t ([6]; from buffer, 24 h): 3897.1 ± 295.6^f μg/cm^2 | Cumulative permeated amounts Q t ([6]; from cream 1% (w/w), 0.5 h): 89.9 ± 4.0^a μg/cm^2 | Cumulative permeated amounts Q t ([6]; from cream 1% (w/w), 1 h): 206.7 ± 8.9^a μg/cm^2 | Cumulative permeated amounts Q t ([6]; from cream 1% (w/w), 2 h): 568.7 ± 7.2^b μg/cm^2 | Cumulative permeated amounts Q t ([6]; from cream 1% (w/w), 4 h): 1414.5 ± 21.3^d μg/cm^2 | Cumulative permeated amounts Q t ([6]; from cream 1% (w/w), 6 h): 2533.7 ± 9.2^f μg/cm^2 | Cumulative permeated amounts Q t ([6]; from cream 1% (w/w), 24 h): 10602.6 ± 18.2^h μg/cm^2 | log K p ([6]; from gel): −1.23 | Cumulative permeated amounts Q t ([6]; from gel 1% (w/w), 0.5 h): 220.5 ± 11.1^abc μg/cm^2 | Cumulative permeated amounts Q t ([6]; from gel 1% (w/w), 1 h): 401.6 ± 30.9^c μg/cm^2 | Cumulative permeated amounts Q t ([6]; from gel 1% (w/w), 2 h): 626.4 ± 211.1^d μg/cm^2 | Cumulative permeated amounts Q t ([6]; from gel 1% (w/w), 4 h): 1474.5 ± 306.9^f μg/cm^2 | Cumulative permeated amounts Q t ([6]; from gel 1% (w/w), 6 h): 1927.6 ± 241.2^g μg/cm^2 | Cumulative permeated amounts Q t ([6]; from gel 1% (w/w), 24 h): 13766.8 ± 92.8^i μg/cm^2 | Cumulative permeated amounts Q t ([6]; from ointment 1% (w/w), 0.5 h): 75.3 ± 5.4^cd μg/cm^2 | Cumulative permeated amounts Q t ([6]; from ointment 1% (w/w), 1 h): 84.8 ± 7.3^de μg/cm^2 | Cumulative permeated amounts Q t ([6]; from ointment 1% (w/w), 2 h): 96.7 ± 5.9^fg μg/cm^2 | Cumulative permeated amounts Q t ([6]; from ointment 1% (w/w), 4 h): 112.4 ± 7.3^h μg/cm^2 | Cumulative permeated amounts Q t ([6]; from ointment 1% (w/w), 6 h): 126.4 ± 3.7^i μg/cm^2 | Cumulative permeated amounts Q t ([6]; from ointment 1% (w/w), 24 h): 151.9 ± 9.5^j μg/cm^2 | permeation through the skin, fold more than the nanonized form ([6]; from the buffer and other semisolid pharmaceutical compositions): ca. 2 fold | lag time T lag ([6]; medium buffer): 0.69 ± 0.38 h | apparent permeability coefficient K p × 10^−3 ([6]; medium buffer): 16.84 10^−3 cm/h | nonsteady-state permeation flux J ([6]; medium buffer, linearized Q t vs time, six time points): 168.4 ± 8.7 μg/cm^2/h | lag time T lag ([6]; medium cream): 0.57 ± 0.01 h | nonsteady-state permeation flux J ([6]; medium cream): 452.2 ± 0.8 μg/cm^2/h | apparent permeability coefficient K p × 10^−3 ([6]; medium cream): 45.22 10^−3 cm/h | lag time T lag ([6]; medium gel): 1.03 ± 0.23 h | nonsteady-state permeation flux J ([6]; medium gel): 588.0 ± 4.8 μg/cm^2/h | apparent permeability coefficient K p × 10^−3 ([6]; medium gel): 58.80 10^−3 cm/h
SMILES: C[C@@H]1NC(=O)C2(CCCC2)NC1=O [Micro, (S)-8-Methyl-6,9-diazaspiro[4.5]decan-7,10-dione]
